Assay [1] deals with PC-3 (prostate cancer cell line). Kind of assay: Cell proliferation assay (GI50) in PC-3 cells. Conditions: Homo sapiens, PC-3, 48 h. It counts as cell-based. As for the experimental part:
[Worded in the source for another cell line; this cell line is reported under the same test.] (§1) T-47D cells were grown and harvested as in Example 221. An aliquot of 90 μl of cells (2.2×10^4 cells/ml) was added to a well of a 96-well microtiter plate containing 10 μl of a 10% DMSO in RPMI-1640 media solution containing 1 nM to 100 μM of 4-(3-methoxyanilino)-2-(2-pyridinyl)-6-(trifluoromethyl)pyrimidine (0.1 nM to 10 μM final). An aliquot of 90 μl of cells was added to a well of a 96-well microtiter plate containing 10 μl of a 10% DMSO in RPMI-1640 media solution without compound as the control sample for maximal cell proliferation (AMax). The samples were mixed by agitation and then incubated at 37° C. for 48 h in a 5% CO2-95% humidity incubator. After incubation, the samples were removed from the incubator and 20 μl of CellTiter 96 AQueous One Solution Cell Proliferation^TM reagent (Promega) was added. The samples were mixed by agitation and incubated at 37° C. for 2-4 h in a 5% CO2-95% humidity incubator. Using an absorbance plate reader (Model 1420 Wallac Instruments), an initial reading (T=0) was made approximately 1-2 min after addition of the solution, employing absorbance at 490 nm. This determines the possible background absorbance of the test compounds. No absorbance for 4-(3-methoxyanilino)-2-(2-pyridinyl)-6-(trifluoromethyl)pyrimidine was found at 490 nm. After the 2-4 h incubation, the samples were read for absorbance as above (ATest). […]

Assay [2] deals with Panc-1 (pancreatic cancer cell line). Nature of the assay: Cell proliferation assay (GI50) in Panc-1 cells. The format is cell-based. The note with it: Homo sapiens, PANC-1, 48 h. Here is the method: [Worded in the source for another cell line; this cell line is reported under the same test.] as §1
The subject of assay [3] is P388 (mouse leukemia cell line). Kind of assay: Cell proliferation assay (GI50) in P388 cells. The format is cell-based. The note with it: P388, 48 h. Here is the method:
[Worded in the source for another organism; used here, by the source, with some conditions changed.] as §1

Assay [4] deals with MES-SA (sarcoma cell line). Kind of assay: Cell proliferation assay (GI50) in MES-SA cells. It counts as cell-based. The note with it: Homo sapiens, 48 h. Here is the method:
[Worded in the source for another cell line; this cell line is reported under the same test.] as §1

In another assay the test system is T-47D cells. Kind of assay: Cell cycle arrest and apoptosis by propidium iodide flow cytometry in T-47D cells. It counts as cell-based, Human. Conditions: 48 h. As for the experimental part: T-47D, a breast cancer cell line, was maintained and harvested as described in Example 221. 5×10^5 Cells were treated with 0.2 μM of 4-(3-methoxyanilino)-2-(2-pyridinyl)-6-(trifluoromethyl)pyrimidine for 48 h at 37° C. As a control, cells were also incubated with equivalent amount of solvent (DMSO). Cells were harvested at 1,200 rpm and then transferred to 12×75 mm polystyrene tubes. Cells were then resuspended in 500 μl of 1% Na Citrate, 0.1% Triton X-100, and 50 μg/ml of propidium iodide and incubated at room temperature for 30 min followed by flow cytometer analysis. All flow cytometry analyses were performed on FACScalibur (Becton Dickinson) using Cell Quest analysis software. The x-axis plotted the amount of fluorescence and the y-axis is plotted the number of cells with the indicated fluorescence. The T-47D control cell population profile is seen in FIG. 1A and the increase in G2/M DNA content cells that is seen when treated with 4-(3-methoxyanilino)-2-(2-pyridinyl)-6-(trifluoromethyl)pyrimidine at 0.2 μM is seen in FIG. 1B. An increase in the sub-diploid DNA content of cells (FIG. 1) is also seen to increase from 2% to 25% with compound treatment. The sub-diploid amount of DNA is indicative of apoptotic cells which have undergone DNA degradation or fragmentation.
(In general: A flow cytometer gives signals particle by particle.)

The test system of another assay is MX-1 cells. Kind of assay: Clonogenic survival of MX-1 cells. It counts as cell-based. The note with it: Homo sapiens, MX1; MX-1, 48 h treatment, colonies after 7-10 days; read-out: IC50 inhibition of clonogenic survival (colony forming ability), MX-1. Here is the method: T47D and MX-1 cells were grown according to the conditions according conditions recommended by American Type Culture Collection. In a well of a 96 well plate, 30,000 cells were seeded and treated with tested compound at the indicated concentrations for 48 hr in a 5% CO2-95% humidity incubator at 37° C. Control wells were treated with the same amount of solvent (DMSO) as the compound samples. After the 48 h treatment, the supernatant was removed to a sterile culture tube and the wells washed with phosphate buffered saline, and the adherent cells trypsinized for 5 min. The trypsinzed cells were added to the culture supernatant, cells were collected (1,200 rpm, 10 min), washed with phosphate buffered saline, and resuspended in fresh media. The cells were counted for trypan blue negative cells, and the cells diluted with fresh media to 1,000 cells/ml. To a well of a 24-well plate, 0.1 ml of the cell suspension was added along with 1 ml of fresh media (cell suspensions were passed through a 22G needle several times just before plating to form single cell suspensions). Plates are incubated in a 5% CO2-95% humidity incubator at 37° C. for 7-10 days. Colonies are counted when the sizes reached greater than 50 cells per colony. […] Colonies are rinsed with water and the colonies counted and the fraction surviving expressed as the percentage of the number of control colonies.

Regarding `COc1cccc(Nc2cc(C(F)(F)F)nc(-c3ccccn3)n2)c1` [Compound A, 4-(3-methoxyanilino)-2-(2-pyridinyl)-6-(trifluoromethyl)pyrimidine], the concentration for 50% growth inhibition (GI50) in assay [1], in assay [2], in assay [3] and in assay [4] was over 10000 nM in each case. Further, the “sub-diploid DNA content of cells” value with T-47D cells (0.2 μM, control 2%) came to 25%. For the same molecule, the G1 population result with T-47D cells (200 nM, versus control cells) is reported as “reduction”. Besides, the “G2/M population (G2/M DNA content cells)” value in the assay on T-47D cells (200 nM, versus control cells) is listed as “increase”. For the same molecule, the half-inhibitory concentration (IC50) (usually the concentration that inhibits the measured activity by half) in the assay with MX-1 cells is about 300 nM.
